Source: patent US20100004221A1, “THIAZEPINE DERIVATIVE” (DAIICHI SANKYO COMPANY, LIMITED, priority 2006, published 2010)

Test system: not given
Assay: not given
Settings: not given

Row | melting point [°C] | Compound
1 | 190 to 193 | CC1(CO)Cc2nnc(-c3ccc(-c4ccc(F)cc4)cc3Cl)n2CCS1 (stereo not shown) [Example 1, [3-(3-Chloro-4′-fluorobiphenyl-4-yl)-8-methyl-5,6,8,9-tetrahydro[1,2,4]triazolo[4,3-d][1,4]thiazepin-8-yl]methanol]
2 | 141 to 143 | COc1ccccc1-c1nnc2n1CCSC(C)(C)C2 [Example 47, 8,8-Dimethyl-3-(2-methoxyphenyl)-5,6,8,9-tetrahydro[1,2,4]triazolo[4,3-d][1,4]thiazepine]
3 | 125 | CCc1ccccc1-c1nnc2n1CCSC(C)(C)C2 [Example 48, 3-(2-Ethylphenyl)-8,8-dimethyl-5,6,8,9-tetrahydro[1,2,4]triazolo[4,3-d][1,4]thiazepine]

Continued, compound first:

Row | Compound | melting point [°C]
4 | COc1cc(-c2ccc(F)c(Cl)c2)ccc1-c1nnc2n1CCSC(C)(CO)C2 (stereo not shown) [Example 32, [3-(3′-Chloro-4′-fluoro-3-methoxybiphenyl-4-yl)-8-methyl-5,6,8,9-tetrahydro[1,2,4]triazolo[4,3-d][1,4]thiazepin-8-yl]methanol] | 238 to 241
5 | CC1(C)Cc2nnc(-c3ccccc3Cl)n2CCS1 [Example 45, 3-(2-Chlorophenyl)-8,8-dimethyl-5,6,8,9-tetrahydro[1,2,4]triazolo[4,3-d][1,4]thiazepine] | 183 to 185
6 | Cc1ccccc1-c1nnc2n1CCSC(C)(C)C2 [Example 46, 8,8-Dimethyl-3-(2-methylphenyl)-5,6,8,9-tetrahydro[1,2,4]triazolo[4,3-d][1,4]thiazepine] | 106 to 107
7 | CCOc1ccccc1-c1nnc2n1CCSC(C)(C)C2 [Example 49, 3-(2-Ethoxyphenyl)-8,8-dimethyl-5,6,8,9-tetrahydro[1,2,4]triazolo[4,3-d][1,4]thiazepine] | 136 to 137
8 | CC1(C)Cc2nnc(-c3ccc(F)cc3Cl)n2CCS1 [Example 50, 3-(2-Chloro-4-fluorophenyl)-8,8-dimethyl-5,6,8,9-tetrahydro[1,2,4]triazolo[4,3-d][1,4]thiazepine] | 177 to 182
9 | COc1cc(-c2cccc(NS(C)(=O)=O)c2)ccc1-c1nnc2n1CCSC(C)(CO)C2 (stereo not shown) [Example 55, N-{4′-[8-(Hydroxymethyl)-8-methyl-5,6,8,9-tetrahydro[1,2,4]triazolo[4,3-d][1,4]thiazepin-3-yl]-3′-methoxybiphenyl-3-yl}methanesulfonamide] | 250 to 252

Molecular target: T1, human 11β-HSD1 (Homo sapiens, UniProt P28845)
T1 construct: cDNA coding for a full-length of human 11β-HSD1 in a mammal cell expression vector pCIneo; made in house; host or cells: HEK293 cells (transient transfection with pCIneo plasmid); microsome fraction used as enzyme source
Assay: 11β-HSD1 enzyme inhibition experiment
Type: biochemical
Settings: test compound at 39 nM; microsome fraction of HEK293 cells expressing human 11β-HSD1; cortisone 160 nM, room temperature, 3 h; read-out: inhibiting effects on cortisol production dependent on the 11β-HSD1 expressing cells
Protocol: A plasmid obtained by incorporating cDNA coding for a full-length of human 11β-HSD1 in a mammal cell expression vector pCIneo (Promega Corporation) was introduced into HEK293 cells using Lipofectamine Plus Reagent (Invitrogen Corporation) according to the package insert. 48 h later, cells were collected and frozen at −80° C. Cells into which the pCIneo vector was introduced were prepared as a control. Cells were thawed and suspended in 20 mM HEPES, 1 mM ethylenediamine tetraacetic acid, 2 mM magnesium chloride (final concentrations), and a buffer containing a protease inhibitor cocktail (Roche), and 4.1 Mpa pressure was applied by N2 cavitation on the ice for 30 min to disrupt cells. The disrupted cell suspension was centrifuged at 1000×g at 4° C. for 10 min, and a supernatant thereof was recovered. The obtained supernatant was further ultracentrifuged at 105,000×g at 4° C. for 30 min, and the resulting precipitate was suspended in an assay buffer (50 mM tris buffer, 10% glycerol) as a microsome fraction and used as an enzyme source.
A reaction was performed on a 384-well plate (Greiner Bio One) using a reaction volume of 25 μL, and all the samples were diluted with an assay buffer (50 mM tris buffer, pH 7.4, 10% glycerol). 0.8 mM NADPH, 6 mM glucose 6-phosphate, 0.35 units/mL glucose 6-phosphate dehydrogenase (Sigma Chemical), and 3 mM magnesium chloride and a microsome fraction having a protein amount of 0.7 μg per well (final concentrations) were added to the plate, and a solution containing a test compound dissolved in dimethyl sulfoxide was added at a final concentration of 0.1% and preincubated at room temperature for 15 min. After completion of preincubation, cortisone at a final concentration of 160 nM was added to start a reaction, and the reaction was performed at room temperature for 3 h. 25 μL of 100 mM carbenoxolone (Sigma Chemical) was added to terminate the reaction, and the amount of produced cortisol was measured with Discovery (Hewlett-Packard Company) using a cortisol prototype kit (Cisbio International) according to the package insert.

T1 sequence (P28845 whole entry): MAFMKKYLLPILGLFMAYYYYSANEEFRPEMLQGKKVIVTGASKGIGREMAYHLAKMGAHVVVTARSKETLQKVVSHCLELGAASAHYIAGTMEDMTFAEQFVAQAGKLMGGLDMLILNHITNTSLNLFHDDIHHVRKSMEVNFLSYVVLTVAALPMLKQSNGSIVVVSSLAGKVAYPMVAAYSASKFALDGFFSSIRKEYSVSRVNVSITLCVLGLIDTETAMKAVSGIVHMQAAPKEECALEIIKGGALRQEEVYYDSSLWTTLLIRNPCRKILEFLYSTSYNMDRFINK

Row | inhibition at 0.039 µM [%] | Compound
10 | 71.8 | CC1(CO)Cc2nnc(-c3ccc(-c4ccc(F)cc4)cc3Cl)n2CCS1 (stereo not shown) [Example 1, [3-(3-Chloro-4′-fluorobiphenyl-4-yl)-8-methyl-5,6,8,9-tetrahydro[1,2,4]triazolo[4,3-d][1,4]thiazepin-8-yl]methanol]
11 | 89 | CC1(C2CC2)Cc2nnc(-c3ccccc3Cl)n2CCS1 (stereo not shown) [Example 52, 3-(2-Chlorophenyl)-8-cyclopropyl-8-methyl-5,6,8,9-tetrahydro[1,2,4]triazolo[4,3-d][1,4]thiazepine]

The next lines start with the compound.

Row | Compound | inhibition at 0.039 µM [%]
12 | Cc1c(-c2nnc3n2CCSC(C)(CO)C3)sc2ccc(Cl)cc12 (stereo not shown) [Example 8, [3-(5-Chloro-3-methyl-1-benzothiophen-2-yl)-8-methyl-5,6,8,9-tetrahydro[1,2,4]triazolo[4,3-d][1,4]thiazepin-8-yl]methanol] | 67.1
13 | COc1cc(-c2ccc(F)c(Cl)c2)ccc1-c1nnc2n1CCSC(C)(CO)C2 (stereo not shown) [Example 32, [3-(3′-Chloro-4′-fluoro-3-methoxybiphenyl-4-yl)-8-methyl-5,6,8,9-tetrahydro[1,2,4]triazolo[4,3-d][1,4]thiazepin-8-yl]methanol] | 35.8
